Results as given in ChEMBL document CHEMBL1201862, “PubChem BioAssay data set” (2004).
Calls of active or inactive are those of the source.

How the values were obtained:
[1] = molecular target: Protein Wnt-3a (Mus musculus, UniProt P27467); assay: antagonism of Wnt3a pathway luciferase reporter – Wnt-LIGHT cells, luminescence, selectivity assay for Gli-SUFU antagonist project, dose response (AID 651570); format: functional; settings: read-out: IC50_Mean;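 note: Wnt-LIGHT reporter cells stimulated with conditioned medium from Wnt3a-producing cells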
Sequence of Protein Wnt-3a (P27467 whole entry): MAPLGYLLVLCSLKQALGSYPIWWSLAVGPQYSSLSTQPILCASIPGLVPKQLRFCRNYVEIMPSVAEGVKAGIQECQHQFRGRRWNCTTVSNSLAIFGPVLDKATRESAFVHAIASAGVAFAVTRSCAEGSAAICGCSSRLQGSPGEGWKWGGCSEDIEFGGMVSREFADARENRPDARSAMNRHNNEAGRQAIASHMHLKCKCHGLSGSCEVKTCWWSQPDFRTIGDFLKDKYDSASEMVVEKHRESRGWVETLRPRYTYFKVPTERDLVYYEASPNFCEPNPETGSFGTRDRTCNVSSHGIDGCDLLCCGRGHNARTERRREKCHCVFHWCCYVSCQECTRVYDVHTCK

[2] = system: INS1; assay: INS-1E survival protection against cytokine death – cell-based, luminescence, retest, dose response (AID 449756); format: functional; settings: Rattus norvegicus;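 note: cell death triggered by IL-1 beta plus TNF-alpha plus IFN-gamma mixture; protective hits raise ATP signal compared with cytokine alone wells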
[3] = molecular target: T1, Corticotropin-releasing factor receptor 2/Corticotropin-releasing factor-binding protein (Homo sapiens, UniProt P24387+Q13324); assay: Dose Response confirmation of uHTS hits for small molecule antagonists of the CRF-binding protein and CRF-R2 receptor complex.; format: functional; settings: read-out: IC50_Mean
T1 sequence (Q13324 whole entry): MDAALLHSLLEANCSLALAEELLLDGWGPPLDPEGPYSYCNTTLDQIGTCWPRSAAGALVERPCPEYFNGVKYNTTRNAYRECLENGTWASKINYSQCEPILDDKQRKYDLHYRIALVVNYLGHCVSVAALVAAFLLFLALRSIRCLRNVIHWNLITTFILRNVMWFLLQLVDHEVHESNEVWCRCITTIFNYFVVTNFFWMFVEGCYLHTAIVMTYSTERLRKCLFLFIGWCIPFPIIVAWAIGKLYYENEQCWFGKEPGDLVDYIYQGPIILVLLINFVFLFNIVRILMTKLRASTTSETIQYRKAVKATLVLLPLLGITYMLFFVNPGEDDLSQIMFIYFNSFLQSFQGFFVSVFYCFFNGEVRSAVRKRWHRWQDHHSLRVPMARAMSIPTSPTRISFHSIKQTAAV
T1 sequence (P24387 whole entry): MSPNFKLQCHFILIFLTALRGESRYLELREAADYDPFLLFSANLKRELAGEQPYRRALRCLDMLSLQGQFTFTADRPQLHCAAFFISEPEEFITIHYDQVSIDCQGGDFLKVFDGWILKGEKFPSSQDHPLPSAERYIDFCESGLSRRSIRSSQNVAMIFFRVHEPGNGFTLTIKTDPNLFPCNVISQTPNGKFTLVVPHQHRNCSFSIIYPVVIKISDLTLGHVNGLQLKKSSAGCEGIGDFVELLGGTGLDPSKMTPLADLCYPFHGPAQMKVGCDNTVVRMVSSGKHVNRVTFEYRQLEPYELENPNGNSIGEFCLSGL

[4] = molecular target: T1, Corticotropin-releasing factor receptor 2/Corticotropin-releasing factor-binding protein; assay: activators of CRF receptor 2 with binding protein – uHTS hits, confirmation (AID 602473); format: functional; settings: read-out: EC50_Mean
[5] = molecular target: T2, Low molecular weight phosphotyrosine protein phosphatase (Homo sapiens, UniProt P24666); format: functional; settings: read-out: IC50_Mean;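 note: Dose-response confirmation assay measuring inhibition of LMPTP enzyme activity by fluorescence intensity read-out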
T2 sequence (P24666 whole entry): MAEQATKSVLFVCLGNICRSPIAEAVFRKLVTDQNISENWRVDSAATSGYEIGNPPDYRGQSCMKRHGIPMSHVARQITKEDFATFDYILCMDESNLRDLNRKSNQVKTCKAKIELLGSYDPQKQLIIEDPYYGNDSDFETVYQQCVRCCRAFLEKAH

[6] = molecular target: Hepatocyte nuclear factor 4-alpha (Homo sapiens, UniProt P41235); format: functional, cell-based;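 note: biochemical luminescence-based dose-response counterscreen measuring inhibition of HNF4 dimerization, run alongside a screen for blockers of ABHD5–perilipin-5 interaction; split luciferase complementation of HNF4 fusion proteins in cell lysate measuring dimerization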
Sequence of Hepatocyte nuclear factor 4-alpha (P41235 whole entry, the tested form may be a part): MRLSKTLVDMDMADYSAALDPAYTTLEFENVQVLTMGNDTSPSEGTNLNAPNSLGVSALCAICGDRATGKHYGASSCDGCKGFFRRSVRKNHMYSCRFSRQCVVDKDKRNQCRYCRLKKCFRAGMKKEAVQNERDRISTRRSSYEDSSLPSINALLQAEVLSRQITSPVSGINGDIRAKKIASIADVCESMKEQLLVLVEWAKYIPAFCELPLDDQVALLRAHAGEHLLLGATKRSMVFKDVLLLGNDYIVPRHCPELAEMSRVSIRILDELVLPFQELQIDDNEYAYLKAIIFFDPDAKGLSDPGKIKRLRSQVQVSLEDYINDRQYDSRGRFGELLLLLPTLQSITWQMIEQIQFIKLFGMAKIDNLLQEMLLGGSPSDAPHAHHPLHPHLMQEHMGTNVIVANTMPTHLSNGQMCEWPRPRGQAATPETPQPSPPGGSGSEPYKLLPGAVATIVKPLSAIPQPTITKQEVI

Compound: CC(C)C(=O)NC(=S)/C=C1/N(C)c2ccccc2C1(C)C
- IC50 [1]: 9.3 µM (active)
- AC50 [2]: 7.53 µM (active)

Compound: COc1ccc(Cn2c(-c3ccco3)nc3c(c(=O)c4ccccc4n3C)c2=O)cc1
- IC50 [3]: > 47.1 µM (inactive)
- EC50 [4]: > 53 µM (inactive)
- IC50 [5]: 39 µM (inactive)

Compound: O=C(NCc1ccccc1)C(c1cc2ccccc2o1)n1c(=O)c(-c2ccco2)nc2ccccc21 (stereo unspecified)
- IC50 [6]: 3.07 µM (active)
